# Reference: patent US20250262298A1, “STING MODULATOR COMPOUNDS WITH SULFAMATE LINKAGES, AND METHODS OF MAKING AND USING” (TAKEDA PHARMACEUTICAL COMPANY LIMITED, priority 2018, published 2025)
# Legend:
# [1] = system: THP1-Dual cells (Lucia luciferase under ISG54 promoter); assay: THP-1 Dual Lucia reporter gene assay; assay type: cell-based, human; conditions: luminescence signal induction, 20 hours at 37° C.
# Description: THP1-Dual™ cells (InvivoGen #thpd-nfis) were derived from the human THP-1 monocyte cell line by stable integration of the Lucia luciferase gene, a secreted luciferase reporter gene, under the control of an ISG54 (interferon-stimulated gene) minimal promoter in conjunction with five interferon (IFN)-stimulated response elements. On the day of experiment, the cells were plated to a black, 384-well plate (Corning 356697) at 7500 cells/25 μl per well density in growth media (RPMI 1640, 2 mM L-glutamine, 25 mM HEPES, 10% heat-inactivated fetal bovine serum, 100 μg/mL Normocin™, 50 U/mL-50 μg/mL Pen-Strep, 10 μg/mL of blasticidin, and 100 μg/mL of Zeocin). The cell plates were dosed with 62.5 nL of the testing compounds, and then incubated at 37° C. for 20 hours. At the end of the incubation, 15 μL/well of the QUANTI-Luc™ (InvivoGen #rep-qlc1) were added, and luminescence was measured immediately using the LeadSeeker.
# For the assay method described above, test compound percent luminescence signal induction, at various concentrations, was calculated relative to untreated and DMSO only treated samples. Compound concentration versus percent signal induction curves were fitted to generate EC50 values. One skilled in the art will appreciate that the values generated as EC50 values are subject to experimental variation.
# Human STING = Human STING (Homo sapiens (Human), UniProt Q86WV6, H232R); assay: Human STING TR-FRET assay; assay type: binding; conditions: human STING residues 140-379 (H232R), 100 nM; fluorescein labeled ligand 100 nM; 60 minutes at rt
# Sequence of Human STING (Q86WV6 140-379 H232R): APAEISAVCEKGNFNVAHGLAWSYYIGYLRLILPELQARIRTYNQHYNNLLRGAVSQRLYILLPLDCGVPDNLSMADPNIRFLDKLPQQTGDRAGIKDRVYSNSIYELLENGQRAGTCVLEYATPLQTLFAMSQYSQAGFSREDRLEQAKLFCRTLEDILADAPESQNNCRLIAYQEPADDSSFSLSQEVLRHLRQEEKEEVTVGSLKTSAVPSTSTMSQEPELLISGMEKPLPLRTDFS
# Description: Human STING (accession number GB:BC047779) DNA encoding residues 140-379 (H232R) was cloned into pET28 as N-terminal HIS and C-terminal Avi tagged fusion protein, and a rTEV cleavage site between HIS tag and STING. The sequence was verified before recombinant protein expression using E. coli expression system.
# For expression, STING expression vector was transformed into BL21(DE3) cells. The expression was induced by adding IPTG and expressing in 16° C. for 20 hours.
# For purification, STING was purified by Nickel affinity resin (Thermo Scientific #25215), followed by TEV enzyme cleavage and Superdex 200 column (GE Healthcare #28-9893-35) purification. For site directed in vitro biotinylation, purified Avi-tagged STING protein was incubated with Biotin (SUPELCO #47868), ATP (SIGMA #A-7699) and BirA enzyme, followed by further purification through a Superdex 200 column (GE Healthcare #28-9893-35). Biotinylation was confirmed by Mass Spectrometry analysis.
# 40 nL of test compounds in DMSO were added to wells in a white, 384 well microtitre plate (Greiner 784075). 2 uL STING assay buffer (PBS and 0.01% BSA) containing fluorescein labeled ligand (c[G(2′,5′)p-2′-Fluo-AHC-A(3′,5′)p]-Biolog C 195, 100 nM final) and Tb labeled Streptavidin (Streptavidin-Tb cryptate-CisBio 610SATLB) were added. Then 2 uL STING assay buffer containing STING protein (100 nM final) was added and the mixture was incubated at rt for 60 minutes. The plates were then read on a BMG PheraStar Plus reader (LanthaScreen module).
# For the assay method described above, test compound percent inhibition, at various concentrations, was calculated relative to untreated and DMSO only treated samples. Compound concentration versus percent inhibition curves were fitted to generate IC50 values. One skilled in the art will appreciate that the values generated either as percentage inhibition at a single concentration or IC50 values are subject to experimental variation.
SMILES,"EC50 ([1]; Homo sapiens, THP1-Dual, 20 h)",IC50 (Human STING),EC50 [1]
"Nc1nc2c(ncn2[C@@H]2O[C@@H]3COP(=O)(S)O[C@H]4C[C@H](n5nnc6cncnc65)C[C@@H]4CNS(=O)(=O)O[C@@H]2C3)c(=O)[nH]1 (single isomer, unassigned) [Compound I-7]",> 25000 nM,10000 to 100000 nM,
"Nc1ncnc2c1ncn2[C@@H]1O[C@@H]2CNS(=O)(=O)O[C@@H]3C[C@@H](COP(=O)(S)O[C@H]2[C@H]1F)O[C@H]3n1cc(F)c2c(=O)[nH]cnc21 (single isomer, unassigned) [Compound I-20]",1000 to 10000 nM,< 1000 nM,
"Nc1nc2c(ncn2[C@@H]2O[C@@H]3COP(=O)(S)O[C@H]4[C@@H](F)[C@H](n5cnc6cncnc65)O[C@@H]4CNS(=O)(=O)O[C@@H]2[C@@H]3OCC(F)(F)F)c(=O)[nH]1 (single isomer, unassigned) [Compound I-13b]",,< 1000 nM,< 1000 nM
"Nc1nc2c(ncn2[C@@H]2O[C@@H]3COP(=O)(S)O[C@H]4C[C@H](Oc5ccncn5)C[C@@H]4CNS(=O)(=O)O[C@@H]2C3)c(=O)[nH]1 (single isomer, unassigned) [Compound I-1]",> 25000 nM,,
"Nc1nc2c(ncn2[C@@H]2O[C@@H]3COP(=O)(S)O[C@H]4[C@@H](F)[C@H](n5cnc6c(N)ncnc65)O[C@@H]4CNS(=O)(=O)O[C@@H]2C3)c(=O)[nH]1 (single isomer, unassigned) [Compound I-4a]",< 1000 nM,< 1000 nM,
"Nc1nc2c(ncn2[C@@H]2O[C@@H]3COP(=O)(S)O[C@H]4[C@@H](F)[C@H](n5cnc6cncnc65)O[C@@H]4CNS(=O)(=O)O[C@@H]2[C@@H]3F)c(=O)[nH]1 (single isomer, unassigned) [Compound I-10]",< 1000 nM,< 1000 nM,
"Nc1nc2c(ncn2[C@@H]2O[C@@H]3COP(=O)(S)O[C@H]4[C@@H](F)[C@H](n5cnc6cncnc65)O[C@@H]4CNS(=O)(=O)O[C@@H]2C3)c(=O)[nH]1 (single isomer, unassigned) [Compound I-11b]",,,< 1000 nM
"Nc1nc2c(ncn2[C@@H]2O[C@@H]3CNS(=O)(=O)O[C@H]4C[C@H](n5cnc6c(N)ncnc65)O[C@@H]4COP(=O)(S)O[C@@H]2C3)c(=O)[nH]1 (single isomer, unassigned) [Compound I-2b]",,10000 to 100000 nM,10000 to 25000 nM
"Nc1nc2c(ncn2[C@@H]2O[C@@H]3COP(=O)(O)O[C@H]4[C@@H](F)[C@H](n5cnc6c(N)ncnc65)O[C@@H]4CNS(=O)(=O)O[C@@H]2C3)c(=O)[nH]1 [Compound I-18, 2-amino-9-[(5S,7R,8R,12aR,14R,15R,15aR)-14-(6-amino-9H-purin-9-yl)-15-fluoro-2-hydroxy-2,10,10-trioxidodecahydro-5,8-methanofuro[2,3-m][1,3,6,9,10,11,2]tetraoxathiazaphosphacyclotetradecin-7-yl]-1,9-dihydro-6H-purin-6-one]",1000 to 10000 nM,< 1000 nM,
"Nc1nc2c(ncn2[C@@H]2O[C@@H]3COP(=O)(S)O[C@H]4[C@@H](F)[C@H](n5cnc6c(=O)[nH]cnc65)O[C@@H]4CNS(=O)(=O)O[C@@H]2C3)c(=O)[nH]1 (single isomer, unassigned) [Compound I-15]",< 1000 nM,,
"Nc1nc2c(ncn2[C@@H]2O[C@@H]3COS(=O)(=O)N[C@H]4C[C@H](n5cnc6c(N)ncnc65)O[C@@H]4COP(=O)(S)O[C@@H]2C3)c(=O)[nH]1 (single isomer, unassigned) [Compound I-12b]",> 25000 nM,1000 to 10000 nM,
"Nc1nc2c(ncn2[C@@H]2O[C@@H]3CNS(=O)(=O)O[C@H]4C[C@H](n5cnc6c(N)ncnc65)O[C@@H]4COP(=O)(O)O[C@@H]2C3)c(=O)[nH]1 [Compound I-9, 2-amino-9-[(5S,7R,8R,12aR,14R,15aS)-14-(6-amino-9H-purin-9-yl)-10-hydroxy-2,2,10-trioxidooctahydro-3H,12H-5,8-methanofuro[3,2-l][1,3,6,11,10,9,2]tetraoxathiazaphosphacyclotetradecin-7-yl]-1,9-dihydro-6H-purin-6-one]",> 25000 nM,10000 to 100000 nM,
"Nc1nc2c(ncn2[C@@H]2O[C@@H]3COP(=O)(S)O[C@H]4[C@@H](F)[C@H](n5cnc6c(N)ncnc65)O[C@@H]4CNS(=O)(=O)O[C@@H]2[C@@H]3F)c(=O)[nH]1 (single isomer, unassigned) [Compound I-16]",< 1000 nM,< 1000 nM,
"Nc1nc2c(ncn2[C@@H]2O[C@@H]3CNS(=O)(=O)O[C@H]4C[C@H](n5cnc6c(N)ncnc65)O[C@@H]4COP(=O)(S)O[C@@H]2C3)c(=O)[nH]1 (single isomer, unassigned) [Compound I-2a]",,> 100000 nM,> 25000 nM
"Nc1nc2c(ncn2[C@@H]2O[C@@H]3COS(=O)(=O)N[C@H]4C[C@H](n5cnc6c(N)ncnc65)O[C@@H]4COP(=O)(S)O[C@@H]2C3)c(=O)[nH]1 (single isomer, unassigned) [Compound I-12a]",< 1000 nM,< 1000 nM,
"Nc1nc2c(ncn2[C@@H]2O[C@@H]3COS(=O)(=O)N[C@H]4[C@@H](F)[C@H](n5cnc6c(N)ncnc65)O[C@@H]4COP(=O)(S)O[C@@H]2C3)c(=O)[nH]1 (single isomer, unassigned) [Compound I-17]",< 1000 nM,< 1000 nM,
"Cn1cc([C@@H]2O[C@@H]3CNS(=O)(=O)O[C@@H]4C[C@@H](COP(=O)(S)O[C@H]3[C@H]2F)O[C@H]4n2cnc3c(=O)[nH]c(N)nc32)c2ncnc(N)c21 (single isomer, unassigned) [Compound I-19]",> 25000 nM,1000 to 10000 nM,
"Nc1nc2c(ncn2[C@@H]2O[C@@H]3COP(=O)(S)O[C@H]4[C@@H](F)[C@H](n5cnc6cncnc65)O[C@@H]4CNS(=O)(=O)O[C@@H]2[C@@H]3OCC(F)(F)F)c(=O)[nH]1 (single isomer, unassigned) [Compound I-13a]",< 1000 nM,< 1000 nM,
"Nc1nc2c(ncn2[C@@H]2O[C@@H]3COP(=O)(S)O[C@H]4[C@@H](F)[C@H](n5cnc6c(N)ncnc65)O[C@@H]4CNS(=O)(=O)O[C@@H]2C3)c(=O)[nH]1 (single isomer, unassigned) [Compound I-4b]",,< 1000 nM,< 1000 nM
"Nc1nc2c(ncn2[C@@H]2O[C@@H]3COP(=O)(S)O[C@H]4C[C@H](n5cnc6c(N)ncnc65)O[C@@H]4CNS(=O)(=O)O[C@@H]2C3)c(=O)[nH]1 (single isomer, unassigned) [Compound I-3]",< 1000 nM,< 1000 nM,
"Nc1nc2c(ncn2[C@@H]2O[C@@H]3COP(=O)(S)O[C@H]4C[C@H](n5cnc6cncnc65)C[C@@H]4CNS(=O)(=O)O[C@@H]2C3)c(=O)[nH]1 (single isomer, unassigned) [Compound I-8]",1000 to 10000 nM,1000 to 10000 nM,
"Nc1nc2c(ncn2[C@@H]2O[C@@H]3COP(=O)(S)O[C@H]4[C@@H](F)[C@H](n5cnc6cncnc65)O[C@@H]4CNS(=O)(=O)O[C@@H]2C3)c(=O)[nH]1 (single isomer, unassigned) [Compound I-11a]",< 1000 nM,< 1000 nM,
"Nc1nc2c(ncn2[C@@H]2O[C@@H]3COP(=O)(O)O[C@H]4C[C@H](n5cnc6c(N)ncnc65)O[C@@H]4CNS(=O)(=O)O[C@@H]2C3)c(=O)[nH]1 [Compound I-5, 2-amino-9-[(5S,7R,8R,12aR,14R,15aS)-14-(6-amino-9H-purin-9-yl)-2-hydroxy-2,10,10-trioxidodecahydro-5,8-methanofuro[2,3-m][1,3,6,9,10,11,2]tetraoxathiazaphosphacyclotetradecin-7-yl]-1,9-dihydro-6H-purin-6-one]",< 1000 nM,1000 to 10000 nM,
"Nc1nc2c(ncn2[C@@H]2O[C@@H]3CO[P@](=O)(S)O[C@@H]4[C@@H](CNS(=O)(=O)O[C@@H]2C3)C[C@@H](n2cnc3cncnc32)[C@@H]4F)c(=O)[nH]1 (single isomer, unassigned) [Compound I-14]",,< 1000 nM,< 1000 nM
